Structures can show the parent of a compound that is named as a salt.
Biological target: PAI-1 (Homo sapiens, UniProt P05121)
Assay: PAI chromogenic substrate assay (first S2251 assay, tPA/plasminogen system)
Assay type: biochemical
Outline: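 Compound preincubated with PAI-1, then added to a tPA/plasminogen system; residual tPA activity generates plasmin, which cleaves chromogenic substrate S2251, releasing p-nitroaniline read at 405 nm.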

Sequence of PAI-1 (P05121 24-402): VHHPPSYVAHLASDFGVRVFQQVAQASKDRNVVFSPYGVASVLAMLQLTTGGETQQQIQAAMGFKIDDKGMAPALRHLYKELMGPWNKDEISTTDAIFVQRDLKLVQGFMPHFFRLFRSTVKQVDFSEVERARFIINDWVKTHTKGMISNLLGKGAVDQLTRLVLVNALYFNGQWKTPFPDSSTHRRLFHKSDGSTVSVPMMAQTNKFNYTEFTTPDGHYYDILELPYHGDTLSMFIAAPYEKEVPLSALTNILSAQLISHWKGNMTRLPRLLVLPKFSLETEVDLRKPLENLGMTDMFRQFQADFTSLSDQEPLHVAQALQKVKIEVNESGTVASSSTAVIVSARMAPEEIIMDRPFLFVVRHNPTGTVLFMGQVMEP

Inhibition of PAI-1 in the first S2251 chromogenic substrate assay (Concentration 6.25 μm) [%] | Inhibition of PAI-1 in the first S2251 chromogenic substrate assay (Concentration 12.5 μm) [%] | Inhibition of PAI-1 in the first S2251 chromogenic substrate assay (Concentration 25 μm) [%] | Inhibition of PAI-1 in the first S2251 chromogenic substrate assay (Concentration 50 μm) [%] | Inhibition of PAI-1 in the first S2251 chromogenic substrate assay (Concentration 100 μm) [%] | Inhibition of PAI-1 in the first S2251 chromogenic substrate assay (Concentration 6 μm) [%] | Inhibition of PAI-1 in the first S2251 chromogenic substrate assay (Concentration 12 μm) [%] | Inhibition of PAI-1 in the first S2251 chromogenic substrate assay (Concentration 2.5 μm) [%] | Inhibition of PAI-1 in the first S2251 chromogenic substrate assay (Concentration 5 μm) [%] | Inhibition of PAI-1 in the first S2251 chromogenic substrate assay (Concentration 10 μm) [%] | Inhibition of PAI-1 in the first S2251 chromogenic substrate assay (Concentration 20 μm) [%] | Inhibition of PAI-1 in the first S2251 chromogenic substrate assay (Concentration 40 μm) [%] | SMILES
0 | 0 | 1 | 2 | 61 | – | – | – | – | – | – | – | O=c1[nH]c(=Cc2ccccc2)c(=O)[nH]c1=Cc1ccccc1 [Compound 22, 3,6-Dibenzylidene-2,5-piperazinedione]
1 | 2 | 10 | 38 | 52 | – | – | – | – | – | – | – | COc1ccc(/C=c2\[nH]c(=O)/c(=C/c3ccc(O)cc3Cl)[nH]c2=O)cc1 [Compound 84, (3Z,6Z)-3-(2-Chloro-4-hydroxybenzylidene)-6-(4-methoxybenzylidene)-2,5-piperazinedione]
2 | 6 | 33 | 52 | 59 | – | – | – | – | – | – | – | CN(C)CCCOc1ccc(/C=c2\[nH]c(=O)/c(=C/c3ccccc3)[nH]c2=O)cc1 [Compound 75, (3Z,6Z)-6-Benzylidene-3-(4-(3-N,N-dimethylaminopropoxy)benzylidene)-2,5-piperazinedione]
0 | 0 | 1 | 25 | 52 | – | – | – | – | – | – | – | CCOc1ccc(/C=c2\[nH]c(=O)/c(=C/c3ccccc3)[nH]c2=O)cc1 [Compound 25, (3Z,6Z)-6-Benzylidene-3-(4-ethoxybenzylidene)-2,5-piperazinedione]
– | – | 53 | 74 | 86 | 14 | 40 | – | – | – | – | – | COc1ccc(/C=c2\[nH]c(=O)/c(=C/c3ccccc3)[nH]c2=O)cc1 [Compound 3, (3Z,6Z,)-6-benylidene-3-(4-methoxybenzylidene)-2,5-piperazinedione]
– | 19 | 60 | 76 | 71 | – | – | – | – | – | – | – | CSCc1ccc(/C=c2\[nH]c(=O)/c(=C/c3ccccc3)[nH]c2=O)cc1 [Compound 59, (3Z,6Z)-6-Benzylidene-3-(4-methylthiomethylbenzylidene)-2,5-piperazinedione]
– | 0 | 1 | 0 | 50 | – | – | – | – | – | – | – | O=c1[nH]/c(=C\c2ccc(F)cc2F)c(=O)[nH]/c1=C\c1ccccc1 [Compound 54, (3Z,6Z)-6-Benzylidene-3-(2,4-difluorobenzylidene)-2,5-piperazinedione]
0 | 1 | 45 | 74 | 71 | – | – | – | – | – | – | – | COc1ccc(/C=c2\[nH]c(=O)/c(=C/c3ccccc3[N+](=O)[O-])[nH]c2=O)cc1 [Compound 28, (3Z,6Z)-6-(4-Methoxybenzylidene)-3-(2-nitrobenzylidene)-2,5-piperazinedione]
– | – | – | – | – | – | – | 0 | 0 | 17 | 48 | 68 | CN(C)CCOc1ccc(/C=c2\[nH]c(=O)/c(=C/c3ccccc3)[nH]c2=O)cc1 [Compound 99, (3Z,6Z)-6-Benzylidene-3-(4-(2-N,N-dimethylaminoethoxy)benzylidene)-2,5-piperazinedione, hydrochloride]

SMILES | Inhibition of PAI-1 in the first S2251 chromogenic substrate assay (Concentration 6.25 μm) [%] | Inhibition of PAI-1 in the first S2251 chromogenic substrate assay (Concentration 12.5 μm) [%] | Inhibition of PAI-1 in the first S2251 chromogenic substrate assay (Concentration 25 μm) [%] | Inhibition of PAI-1 in the first S2251 chromogenic substrate assay (Concentration 50 μm) [%] | Inhibition of PAI-1 in the first S2251 chromogenic substrate assay (Concentration 100 μm) [%] | Inhibition of PAI-1 in the first S2251 chromogenic substrate assay (Concentration 6 μm) [%] | Inhibition of PAI-1 in the first S2251 chromogenic substrate assay (Concentration 12 μm) [%] | Inhibition of PAI-1 in the first S2251 chromogenic substrate assay (Concentration 2.5 μm) [%] | Inhibition of PAI-1 in the first S2251 chromogenic substrate assay (Concentration 5 μm) [%] | Inhibition of PAI-1 in the first S2251 chromogenic substrate assay (Concentration 10 μm) [%] | Inhibition of PAI-1 in the first S2251 chromogenic substrate assay (Concentration 20 μm) [%] | Inhibition of PAI-1 in the first S2251 chromogenic substrate assay (Concentration 40 μm) [%]
COc1ccc(/C=c2\[nH]c(=O)/c(=C/c3ccc(CNC(=O)OC(C)(C)C)cc3)[nH]c2=O)cc1 [Compound 56, (3Z,6Z)-(4-Methoxybenzylidene)-6-(4-tert-butoxycarbonylaminomethylbenzylidene)-2,5-piperazinedione] | – | 2 | 15 | 60 | 82 | – | – | – | – | – | – | –
CC(=O)SCc1ccc(/C=c2\[nH]c(=O)/c(=C/c3ccccc3)[nH]c2=O)cc1 [Compound 76, (3Z,6Z)-6-Benzylidene-3-(4-thioacetoxymethylbenzylidene)-2,5-piperazinedione] | 2 | 5 | 50 | 75 | 66 | – | – | – | – | – | – | –
COc1ccc(/C=c2\[nH]c(=O)/c(=C/c3ccc(OC(C)=O)cc3)[nH]c2=O)cc1 [Compound 37, (3Z,6Z)-3-(4-Acetoxybenzylidene)-6-(4-methoxybenzylidene)-2,5-piperazinedione] | – | – | 2 | 19 | 69 | – | – | – | – | – | – | –
COc1ccc(/C=c2\[nH]c(=O)/c(=C/c3cccc(CSC(C)=O)c3)[nH]c2=O)cc1 [Compound 63, (3Z,6Z)-3-(4-Methoxybenzylidene)-6-(3-thioacetoxymethylbenzylidene)-2,5-piperazinedione] | – | 36 | 44 | 70 | 69 | – | – | – | – | – | – | –

Reference: patent publication US5700804A, “Pharmaceutical compounds” (Xenova Limited, priority 1992, dated 1997)
